ChEMBL document CHEMBL5390198, “Scaffold hopping of N-benzyl-3,4,5-trimethoxyaniline: 5,6,7-Trimethoxyflavan derivatives as novel potential anticancer agents modulating hippo signaling pathway” (2023)
Calls of active or inactive are those of the source. The rule behind the calls is not given here.

Legend:
Assay type in all cases: functional
[1] = system: NCI-H23; assay: cells; settings: Homo sapiens, time 24-72 hrs
Description: Antiproliferative activity against human NCI-H23 cells assessed as inhibition of cell growth at 10 uM measured after 24 to 72 hrs by SRB method relative to control

[2] = system: NCI-H226; assay: cells; settings: Homo sapiens, time 24-72 hrs
Description: Antiproliferative activity against human NCI-H226 cells assessed as inhibition of cell growth at 10 uM measured after 24 to 72 hrs by SRB method relative to control

[3] = system: A549; assay: cells; settings: Homo sapiens, time 24-72 hrs
Description: Antiproliferative activity against human A549 cells assessed as inhibition of cell growth at 10 uM measured after 24 to 72 hrs by SRB method relative to control

[4] = system: NCI-H460; assay: cells; settings: Homo sapiens, time 24-72 hrs
Description: Antiproliferative activity against human NCI-H460 cells assessed as inhibition of cell growth at 10 uM measured after 24 to 72 hrs by SRB method relative to control

[5] = system: HOP-92; assay: cells; settings: Homo sapiens, time 24-72 hrs
Description: Antiproliferative activity against human HOP-92 cells assessed as inhibition of cell growth at 10 uM measured after 24 to 72 hrs by SRB method relative to control

[6] = system: HOP-62; assay: Antiproliferative activity against human HOP-62 cells assessed as inhibition of cell growth at 10 uM measured after 24 to 72 hrs by SRB method relative to control; settings: time 24-72 hrs
[7] = system: NCI-H322M; assay: Antiproliferative activity against human NCI-H322M cells assessed as inhibition of cell growth at 10 uM measured after 24 to 72 hrs by SRB method relative to control; settings: time 24-72 hrs
[8] = system: NCI-H522; assay: Antiproliferative activity against human NCI-H522 cells assessed as inhibition of cell growth at 10 uM measured after 24 to 72 hrs by SRB method relative to control; settings: time 24-72 hrs
[9] = system: EKVX; assay: cells; settings: Homo sapiens, time 24-72 hrs
Description: Antiproliferative activity against human EKVX cells assessed as inhibition of cell growth at 10 uM measured after 24 to 72 hrs by SRB method relative to control

SMILES	inhibition at 10 µM [1]	inhibition at 10 µM [2]	inhibition at 10 µM [3]	inhibition at 10 µM [4]	inhibition at 10 µM [5]	inhibition at 10 µM [6]	inhibition at 10 µM [7]	inhibition at 10 µM [8]	inhibition at 10 µM [9]	inhibition [6]	inhibition [7]
COc1cc2c(c(OC)c1OC)CCC(c1cccc(C(=O)Nc3cccc(Br)c3)c1)O2 (stereo not given)	22.5%	30.1%	35.5%	29.5%	93.8%	3.19%	49.1%	51.2%	49.6%		
COc1cc2c(c(OC)c1OC)CCC(c1cccc(C(=O)Nc3ccc(C#N)cc3)c1)O2 (stereo not given)	59.4%	67%	49.1%	43.5%	47.7%	27.9%	22.6%	61.6%	39.9%		
COc1cc2c(c(OC)c1OC)CCC(c1cccc(C(=O)Nc3ccc([N+](=O)[O-])cc3)c1)O2 (stereo not given)	52.8%	51.7%	44.8%	41.1%	57.4%	23.3%	31.7%	50.4%	44.6%		
COc1cc2c(c(OC)c1OC)CCC(c1cccc(C(=O)Nc3ccccc3)c1)O2 (stereo not given)	15.3%	25.6%	15.8%	12.2%	77.9%	6.18%	41.1%	38%	9.05%		
COc1cccc(C(=O)Nc2cccc(C3CCc4c(cc(OC)c(OC)c4OC)O3)c2)c1 (stereo not given)	10.2%	24%	22.1%	4.3%	13%	8.46%	18.6%	33.5%	15.2%		
COc1cc2c(c(OC)c1OC)CCC(c1cccc(NC(=O)C(C)C)c1)O2 (stereo not given)	2.65%	3.99%	10.7%					9.48%		inactive	inactive
COc1cc(C(=O)Nc2cccc(C3CCc4c(cc(OC)c(OC)c4OC)O3)c2)cc(OC)c1OC (stereo not given)	6.7%	23.8%	27.6%	12.7%	48.9%	26.1%	3.54%	56.8%	19.5%		
COc1cc2c(c(OC)c1OC)CCC(c1cccc(NC(=O)c3cccc(Br)c3)c1)O2 (stereo not given)	4.86%	6.31%	18.8%		6.02%	0.21%	1.51%	19%	15.4%		
COc1cc2c(c(OC)c1OC)CCC(c1cccc(C(=O)NC(C)C)c1)O2 (stereo not given)	6.78%	16.4%	1.14%	2.47%	19.7%	1.41%	4.16%	17%			
COc1cc2c(c(OC)c1OC)CCC(c1cccc(NC(=O)c3ccccc3Br)c1)O2 (stereo not given)	5.1%	14.6%	13.8%		8.39%	2.7%	6.37%	20.7%	7.82%		
COc1cc2c(c(OC)c1OC)CCC(c1cccc(NC(=O)c3ccc([N+](=O)[O-])cc3)c1)O2 (stereo not given)	34.2%	50.7%	32.2%	29%	15.7%	7.28%	11%	32.5%	35.4%		
COc1cccc(NC(=O)c2cccc(C3CCc4c(cc(OC)c(OC)c4OC)O3)c2)c1 (stereo not given)	26.1%	46.3%	29.2%	16%	73.7%	14.8%	45.8%	46.9%	30.9%		
COc1cc2c(c(OC)c1OC)CCC(c1cccc(NC(=O)c3ccc(Br)cc3)c1)O2 (stereo not given)	19.9%	27.6%	32.6%	6.47%	41.5%	12.8%	24.9%	25.4%	22.8%		
COc1cc2c(c(OC)c1OC)CCC(c1cccc(NC(=O)c3ccccc3)c1)O2 (stereo not given)	15.6%	19.8%	19.5%		5.1%	1.13%	5.18%	24.3%			
COc1ccccc1C(=O)Nc1cccc(C2CCc3c(cc(OC)c(OC)c3OC)O2)c1 (stereo not given)	0.42%	8.5%	11.7%	2.38%	4.05%	4.59%	3.14%	19.7%	2.25%		
COc1cc2c(c(OC)c1OC)CCC(c1cccc(NC(=O)c3cccc(Cl)c3)c1)O2 (stereo not given)	7.27%	20.2%	15%	3.06%	16.9%	7.17%	9.74%	37.9%	14.1%		
COc1cc2c(c(OC)c1OC)CCC(c1cccc(C(=O)Nc3ccccc3Br)c1)O2 (stereo not given)	2.79%	7.74%	18.9%		33.7%	7.73%	5.11%	19.9%	9.92%		
COc1ccccc1NC(=O)c1cccc(C2CCc3c(cc(OC)c(OC)c3OC)O2)c1 (stereo not given)	1.98%	8.23%	9.57%	2.86%	9.4%	8.84%	11.4%	27.7%	5.98%		
COc1cc2c(c(OC)c1OC)CCC(c1cccc(C(=O)Nc3cccc(Cl)c3)c1)O2 (stereo not given)	14.2%	34.4%	38.5%	15%	91.5%	20.4%	48.3%	48.3%	35.8%		
COc1cc2c(c(OC)c1OC)CCC(c1cccc(NC(=O)c3ccc(C#N)cc3)c1)O2 (stereo not given)	28.1%	28.8%	29.4%	5.83%	10.6%	21.8%	11.1%	42.8%	29%		
COc1cc2c(c(OC)c1OC)CCC(c1cccc(C(=O)Nc3ccc(Br)cc3)c1)O2 (stereo not given)	24.2%	37.3%	35.8%	16%	83%	18%	50%	51.1%	39.5%		
